The source of these data is ChEMBL document CHEMBL1201862, “PubChem BioAssay data set” (2004).

Activity calls are given as the source filed them.

In experiment [1] the target is T1, Delta-type opioid receptor (Homo sapiens, UniProt P41143). Briefly: HTS Image-Based Screen for Agonists of the DOR Receptor. [Related pubchem assays (depositor defined):AID1777, AID1786, AID2133]. Format: functional.
A short description of experiment [2]: NIH3T3 cell viability loss – ATP luminescence, mouse fibroblasts, counter-screen, dose response (AID 2010).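 Also: cells exposed to compound for about 90 hours before reading.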 The experiment is classed as functional, cell-based. On the technique in general: A counterscreen serves to expose hits that act by an unwanted route or on another target.
The target in experiment [3] is Mu-type opioid receptor (Homo sapiens, UniProt P35372). Put plainly: HTS Image-Based Screen for Agonists of the MOR Receptor. [Related pubchem assays (depositor defined):AID1777, AID1785, AID1786, AID2133]. Format: functional.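 Also: imaging of beta-arrestin GFP recruitment into spots after receptor activation.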
Sequence of Mu-type opioid receptor (P35372 whole entry): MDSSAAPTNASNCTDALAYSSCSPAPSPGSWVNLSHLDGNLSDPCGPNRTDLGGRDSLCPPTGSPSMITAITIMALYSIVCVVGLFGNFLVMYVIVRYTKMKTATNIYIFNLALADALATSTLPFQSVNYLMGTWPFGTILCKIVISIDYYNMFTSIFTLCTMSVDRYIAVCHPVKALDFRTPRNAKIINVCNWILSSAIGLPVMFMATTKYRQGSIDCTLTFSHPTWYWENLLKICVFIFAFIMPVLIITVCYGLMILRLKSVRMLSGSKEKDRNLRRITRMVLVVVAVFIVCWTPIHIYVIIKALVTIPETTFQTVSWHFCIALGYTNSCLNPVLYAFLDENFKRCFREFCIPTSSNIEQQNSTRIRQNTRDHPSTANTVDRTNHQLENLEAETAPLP
Experiment [4] concerns the target T2, Kappa-type opioid receptor (Homo sapiens, UniProt P41145). Format: functional.
The target in experiment [5] is T3, Beta-galactosidase (Escherichia coli, UniProt Q8VNN2). The experiment is classed as functional.
T3 sequence (Q8VNN2 whole entry): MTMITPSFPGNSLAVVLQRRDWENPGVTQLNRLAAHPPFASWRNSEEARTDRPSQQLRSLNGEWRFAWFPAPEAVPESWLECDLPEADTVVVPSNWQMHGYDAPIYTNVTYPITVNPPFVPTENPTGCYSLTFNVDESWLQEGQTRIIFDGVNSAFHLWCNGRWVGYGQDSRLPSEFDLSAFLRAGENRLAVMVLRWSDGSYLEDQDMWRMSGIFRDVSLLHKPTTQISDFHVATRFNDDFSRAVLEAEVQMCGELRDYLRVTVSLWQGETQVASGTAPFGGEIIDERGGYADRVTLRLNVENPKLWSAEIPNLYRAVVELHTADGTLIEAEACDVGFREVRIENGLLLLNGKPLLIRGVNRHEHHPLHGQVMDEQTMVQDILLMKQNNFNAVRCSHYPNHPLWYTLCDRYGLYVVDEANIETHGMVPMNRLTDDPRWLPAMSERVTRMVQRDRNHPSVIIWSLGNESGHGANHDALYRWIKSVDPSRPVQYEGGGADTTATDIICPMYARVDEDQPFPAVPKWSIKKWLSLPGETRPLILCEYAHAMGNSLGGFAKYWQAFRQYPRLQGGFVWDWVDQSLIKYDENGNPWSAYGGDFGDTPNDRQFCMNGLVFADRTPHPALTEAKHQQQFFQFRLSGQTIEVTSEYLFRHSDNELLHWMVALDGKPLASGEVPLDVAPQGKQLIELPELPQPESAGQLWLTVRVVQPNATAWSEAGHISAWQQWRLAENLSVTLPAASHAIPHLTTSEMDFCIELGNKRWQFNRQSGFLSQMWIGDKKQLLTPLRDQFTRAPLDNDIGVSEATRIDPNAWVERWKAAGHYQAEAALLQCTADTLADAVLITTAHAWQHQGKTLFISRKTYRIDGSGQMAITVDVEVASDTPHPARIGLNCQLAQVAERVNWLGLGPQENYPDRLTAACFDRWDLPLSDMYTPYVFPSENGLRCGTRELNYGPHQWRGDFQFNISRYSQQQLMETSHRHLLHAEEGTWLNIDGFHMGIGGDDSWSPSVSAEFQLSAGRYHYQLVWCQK
Experiment [6] deals with T1, Delta-type opioid receptor. Briefly: HTS Image-Based Screen for Antagonists of the DOR Receptor. [Related pubchem assays (depositor defined):AID1777, AID1785, AID1786, AID2133]. Format: functional.
Experiment [7] addresses T3, Beta-galactosidase. Briefly: detection-enzyme interference by beta-gal modulators – biochemical, E. coli enzyme, set 3, artefact control for CCR6 antagonist project, dose response (AID 504712). Format: functional.
The nature of experiment [8]: fluconazole-exposed Candida albicans growth modulators – fluorescence, retest, confirmation (AID 2467). The experiment is classed as functional, cell-based.
Experiment [9] in a line: NIH-3T3 fibroblast cytotoxicity, dose response, cytotoxicity control, cell-based, fluorescence, Alamar Blue, secondary assay (AID 2327).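 Also: NIH-3T3 mouse fibroblasts cultured with fluconazole at 8 µg/mL.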 The experiment is classed as functional. On the technique in general: Alamar Blue is a resazurin reagent that responds to reducing activity.
Experiment [10] has as its system Streptococcus sp. 'group A'. Briefly: Streptococcus pyogenes SK(-)GAS viability under kanamycin – luminescence, BacTiterGlo, confirmation, counter-screen for streptokinase expression inhibitor project, dose response (AID 1900). The experiment is classed as functional, organism-based.
For experiment [11], the system named is Streptococcus. Briefly: GAS UMAA2166 growth inhibition – luminescence, BacTiterGlo, counter-screen for streptokinase expression inhibitor project, dose response (AID 1915).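 Also: potency for reduction of bacterial viability or growth.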 Format: functional, organism-based.
In experiment [12] the target is Photoreceptor-specific nuclear receptor (Homo sapiens, UniProt Q9Y5X4). Format: functional, cell-based.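 Also: CHO-S cells with Gal4-NCOR and VP16-NR2E3 two-hybrid luciferase reporter.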
Experiment [13] relates to Vero. Briefly: cells. Particulars: Chlorocebus sabaeus. The experiment is classed as functional.
Experiment [14] addresses T2, Kappa-type opioid receptor. Format: functional. The source holds these as a separate data set.
Experiment [15] can be described thus: Trypanosoma cruzi growth suppression in host cells – NIH3T3 host cells, beta-gal luminescence, confirmation (AID 2044).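 Also: intracellular parasites grown in NIH/3T3 mouse fibroblasts as host cells; luminescent beta-galactosidase reporter signal from transgenic T. cruzi replicating inside host cells; inhibitors lower the luminescence signal.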 Format: functional, cell-based.
Experiment [16] addresses G-protein coupled receptor 55 (Homo sapiens, UniProt Q9Y2T6). Briefly: inhibition of LPI-stimulated GPR55 beta-arrestin translocation – imaging, U2OS, beta-arrestin-GFP, LPI agonist, primary screen (AID 2013).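 Also: antagonist potency measured as reduced agonist-driven arrestin aggregation.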 The experiment is classed as functional.
The target in experiment [17] is Tumor necrosis factor (Homo sapiens, UniProt P01375). Put plainly: analog potency on TNFa NF-kB signaling – cell-based, revised, SAR follow-up (AID 2337). The experiment is classed as functional.
Sequence of Tumor necrosis factor (P01375 whole entry): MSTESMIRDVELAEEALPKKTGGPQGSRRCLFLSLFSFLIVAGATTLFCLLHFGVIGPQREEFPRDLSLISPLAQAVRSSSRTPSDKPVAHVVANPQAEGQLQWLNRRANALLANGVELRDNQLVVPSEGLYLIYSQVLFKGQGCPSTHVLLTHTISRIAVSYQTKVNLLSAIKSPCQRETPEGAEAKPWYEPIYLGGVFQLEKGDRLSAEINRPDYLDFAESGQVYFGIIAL
Experiment [18] has as its system HEK293. Briefly: cells. Particulars: Homo sapiens.
Experiment [19] addresses T4, Intestinal-type alkaline phosphatase (Homo sapiens, UniProt P09923). Put plainly: human intestinal alkaline phosphatase activators, dose response, biochemical, luminescence, uHTS hits (AID 463120). Format: functional.
Experiment [20] deals with T5, Alkaline phosphatase, tissue-nonspecific isozyme (Homo sapiens, UniProt P05186).
T5 sequence (P05186 whole entry): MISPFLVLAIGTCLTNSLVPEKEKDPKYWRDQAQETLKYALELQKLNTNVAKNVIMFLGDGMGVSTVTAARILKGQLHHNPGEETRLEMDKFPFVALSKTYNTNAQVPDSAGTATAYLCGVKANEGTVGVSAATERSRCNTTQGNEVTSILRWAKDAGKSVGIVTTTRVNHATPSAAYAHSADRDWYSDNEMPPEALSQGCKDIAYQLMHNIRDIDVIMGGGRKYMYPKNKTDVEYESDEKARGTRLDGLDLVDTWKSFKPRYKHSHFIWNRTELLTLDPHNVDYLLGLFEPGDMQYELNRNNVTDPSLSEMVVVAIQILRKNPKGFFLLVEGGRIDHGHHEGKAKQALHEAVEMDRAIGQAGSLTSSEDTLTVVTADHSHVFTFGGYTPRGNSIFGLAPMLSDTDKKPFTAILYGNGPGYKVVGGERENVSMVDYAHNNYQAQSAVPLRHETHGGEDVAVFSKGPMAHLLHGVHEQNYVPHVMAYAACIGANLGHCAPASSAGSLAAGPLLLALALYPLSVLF
Put plainly: activation of tissue-nonspecific alkaline phosphatase – biochemical, TNAP isozyme, human IAP uHTS hits, selectivity assay for human IAP activator project, dose response (AID 488886).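 Also: potency of compounds raising TNAP activity as a selectivity check on IAP activators.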 Format: functional.

Experiment [21] concerns the target Intestinal-type alkaline phosphatase (Mus musculus, UniProt P24822). Briefly: PubChem AID 488874. The experiment is classed as functional.
Experiment [22] addresses T4, Intestinal-type alkaline phosphatase. Put plainly: activation of human intestinal alkaline phosphatase – biochemical, luminescent, uHTS hits, set 2, dose response (AID 488817).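 Also: potency of activators that raise enzyme activity.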 The experiment is classed as functional.
Experiment [23] deals with HEK293. Put plainly: NOD2 signaling inhibitors in MDP-stimulated cells, cell-based, uHTS, luminescence (AID 2001). Particulars: Homo sapiens. Format: functional.
Experiment [24] can be described thus: non-specific 3'UTR reporter inhibition in Clone20-Shn3RL – cell-based, Renilla luciferase, cherry-picked, counter-screen for Shn3 inhibitor project, dose response (AID 624133). The experiment is classed as functional.
Experiment [25] can be described thus: loss of viability in HepG2 cells – cell-based, CellTiter-Glo, cherry-picked, cytotoxicity control for Shn3 inhibitor project, dose response (AID 624134). Format: functional. Background: In ATP-based viability assays light output follows the ATP content of the culture.
Experiment [26] in a line: reduction of Shn3 3'UTR-driven luciferase in osteoblasts – cell-based, Clone20 osteoblasts, firefly luciferase, cherry-picked, dose response (AID 624132).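 Also: firefly luciferase luminescence from reporter carrying the Shn3 3'UTR in osteoblasts.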 The experiment is classed as functional.
Experiment [27] relates to HEK293. Briefly: inhibition of NOD1-driven NF-kB reporter – cell-based, luminescence, uHTS, primary screen (AID 1578). Format: functional. The settings on record: Homo sapiens.
Experiment [28] in a line: decrease of insulin promoter-GFP reporter – imaging, high-content screening, mouse beta cells (AID 1628). Format: functional. The settings on record: MIN6.
In experiment [29] the target is ATP-dependent molecular chaperone HSP82 (Candida albicans (strain WO-1) (Yeast), UniProt C4YTQ8). Briefly: steroid-induced GRE reporter decrease in yeast – S. cerevisiae, luminescence, Hsp90 inhibitor project, dose response (AID 2400).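 Also: beta-galactosidase luminescence from glucocorticoid response element reporter as proxy for Hsp90 function; inhibitor potency where signal loss means Hsp90 inhibition.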 The experiment is classed as functional, cell-based.
Sequence of ATP-dependent molecular chaperone HSP82 (C4YTQ8 whole entry): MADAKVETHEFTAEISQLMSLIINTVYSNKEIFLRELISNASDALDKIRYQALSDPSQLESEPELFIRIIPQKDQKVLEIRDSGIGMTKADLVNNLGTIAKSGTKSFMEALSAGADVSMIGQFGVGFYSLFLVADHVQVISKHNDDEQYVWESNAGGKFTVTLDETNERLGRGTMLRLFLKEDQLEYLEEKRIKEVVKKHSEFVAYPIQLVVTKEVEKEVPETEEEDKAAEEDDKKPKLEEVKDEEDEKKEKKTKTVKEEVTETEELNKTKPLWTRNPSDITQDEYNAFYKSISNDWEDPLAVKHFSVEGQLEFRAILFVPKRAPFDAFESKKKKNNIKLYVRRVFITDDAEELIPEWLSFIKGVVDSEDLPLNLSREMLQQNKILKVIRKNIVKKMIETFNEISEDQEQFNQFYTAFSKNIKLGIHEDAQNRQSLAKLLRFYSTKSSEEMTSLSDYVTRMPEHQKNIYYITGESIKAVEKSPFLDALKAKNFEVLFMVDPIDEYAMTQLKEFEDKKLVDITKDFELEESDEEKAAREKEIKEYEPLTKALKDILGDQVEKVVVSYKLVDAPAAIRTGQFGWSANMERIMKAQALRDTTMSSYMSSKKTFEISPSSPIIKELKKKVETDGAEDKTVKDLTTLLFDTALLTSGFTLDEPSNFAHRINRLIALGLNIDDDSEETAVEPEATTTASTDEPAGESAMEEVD
In experiment [30] the target is Signal transducer and activator of transcription 3 (Homo sapiens, UniProt P40763). Briefly: STAT3 blockade with qPCR and toxicity readouts – cell-based, STAT1 panel, cytotoxicity, late-stage follow-up, panel member STAT3 Inhibition (AID 2078).
The target in experiment [31] is Signal transducer and activator of transcription 1-alpha/beta (Homo sapiens, UniProt P42224). Put plainly: STAT3 blockade with qPCR and toxicity readouts – cell-based, STAT1 panel, cytotoxicity, late-stage follow-up, panel member STAT1 Inhibition (AID 2078).
Sequence of Signal transducer and activator of transcription 1-alpha/beta (P42224 whole entry): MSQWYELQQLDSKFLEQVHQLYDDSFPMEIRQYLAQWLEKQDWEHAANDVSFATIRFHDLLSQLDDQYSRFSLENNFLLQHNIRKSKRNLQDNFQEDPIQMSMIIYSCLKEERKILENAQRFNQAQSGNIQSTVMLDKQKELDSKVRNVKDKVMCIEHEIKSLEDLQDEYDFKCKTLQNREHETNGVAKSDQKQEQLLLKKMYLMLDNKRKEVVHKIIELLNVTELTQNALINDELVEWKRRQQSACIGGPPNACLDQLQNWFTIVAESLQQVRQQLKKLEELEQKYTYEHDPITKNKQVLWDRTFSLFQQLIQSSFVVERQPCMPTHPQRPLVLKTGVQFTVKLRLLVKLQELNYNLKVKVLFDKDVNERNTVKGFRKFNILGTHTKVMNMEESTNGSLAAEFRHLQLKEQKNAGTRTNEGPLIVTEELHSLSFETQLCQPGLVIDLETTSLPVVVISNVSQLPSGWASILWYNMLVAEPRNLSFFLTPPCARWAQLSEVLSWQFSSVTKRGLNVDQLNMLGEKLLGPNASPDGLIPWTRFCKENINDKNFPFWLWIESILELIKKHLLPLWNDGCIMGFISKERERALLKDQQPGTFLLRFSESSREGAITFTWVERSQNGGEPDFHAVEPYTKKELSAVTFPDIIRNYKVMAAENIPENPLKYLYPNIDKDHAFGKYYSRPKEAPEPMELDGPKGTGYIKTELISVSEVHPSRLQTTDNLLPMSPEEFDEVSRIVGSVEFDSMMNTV
For experiment [32], the system named is HEK293. Put plainly: cells. The experiment is classed as functional, cell-based. The settings on record: Homo sapiens.
Experiment [33] has as its target T6, Serine/threonine-protein phosphatase (Candida dubliniensis (strain CD36 / CBS 7987 / NCPF 3949 / NRRLY-17841) (Yeast), UniProt B9W6M3).
T6 sequence (B9W6M3 whole entry): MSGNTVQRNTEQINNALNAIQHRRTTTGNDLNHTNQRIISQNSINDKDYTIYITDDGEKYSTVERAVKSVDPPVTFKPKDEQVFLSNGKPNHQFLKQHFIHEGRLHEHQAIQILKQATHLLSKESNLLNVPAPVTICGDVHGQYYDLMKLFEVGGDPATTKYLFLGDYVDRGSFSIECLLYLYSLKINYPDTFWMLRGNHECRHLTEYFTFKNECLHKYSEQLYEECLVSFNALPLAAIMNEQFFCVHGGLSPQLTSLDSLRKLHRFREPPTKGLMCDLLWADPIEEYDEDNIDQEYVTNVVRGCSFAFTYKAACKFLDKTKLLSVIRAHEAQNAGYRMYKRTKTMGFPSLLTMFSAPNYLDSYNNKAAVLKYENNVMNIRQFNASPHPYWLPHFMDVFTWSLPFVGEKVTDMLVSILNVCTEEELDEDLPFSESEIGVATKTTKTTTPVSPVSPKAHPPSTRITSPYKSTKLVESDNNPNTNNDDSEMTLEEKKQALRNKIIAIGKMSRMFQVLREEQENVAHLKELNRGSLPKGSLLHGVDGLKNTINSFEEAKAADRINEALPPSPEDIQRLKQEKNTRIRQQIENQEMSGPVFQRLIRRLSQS
Put plainly: blockers of CaCl2-induced CDRE-lacZ signaling – S. cerevisiae, luminescence, secondary, dose response (AID 2388).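 Also: yeast reporter cells carrying a calcineurin-responsive lacZ construct stimulated with calcium chloride; luminescent beta-galactosidase reporter signal in whole cells rather than isolated phosphatase activity; potency for inhibition where a drop in reporter signal means calcineurin blockade.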 Format: functional, cell-based.

A short description of experiment [34]: MIN6 cell viability loss – mouse insulinoma, cytotoxicity control, dose response (AID 2122).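 Also: confirmatory high-throughput counterscreen run to flag cytotoxic compounds.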 Format: functional.
In experiment [35] the test system is HEK293. Briefly: cells. Particulars: Homo sapiens. Format: functional, cell-based. This is another data set of the same source.
Experiment [36] deals with T7, Heat shock factor protein 1 (Mus musculus, UniProt P38532).
T7 sequence (P38532 whole entry): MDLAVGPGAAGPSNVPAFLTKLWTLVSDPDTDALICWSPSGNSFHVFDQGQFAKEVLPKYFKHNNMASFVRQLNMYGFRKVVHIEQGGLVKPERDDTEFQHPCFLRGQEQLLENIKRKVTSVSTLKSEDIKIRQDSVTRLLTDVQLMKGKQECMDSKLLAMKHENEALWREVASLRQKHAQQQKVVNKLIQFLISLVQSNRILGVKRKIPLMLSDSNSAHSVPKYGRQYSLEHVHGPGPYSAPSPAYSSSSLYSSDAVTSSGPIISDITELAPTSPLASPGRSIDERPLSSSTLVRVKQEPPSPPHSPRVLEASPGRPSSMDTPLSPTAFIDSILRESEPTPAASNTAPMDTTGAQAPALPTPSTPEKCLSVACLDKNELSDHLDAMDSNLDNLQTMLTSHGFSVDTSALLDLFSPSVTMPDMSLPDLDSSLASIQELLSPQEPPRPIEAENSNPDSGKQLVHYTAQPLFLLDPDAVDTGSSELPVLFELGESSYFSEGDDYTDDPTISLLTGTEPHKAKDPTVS
Briefly: decrease of HSF1-responsive luciferase luminescence – cell-based, NIH3T3, dose retest, confirmation (AID 2382).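 Also: NIH3T3 fibroblasts with HSF1-driven luciferase reporter stressed by proteasome inhibitor MG132; luminescence from HSF1-driven luciferase expression after 8 hours of MG132 stress.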 Format: functional.

T2 sequence (P41145 whole entry): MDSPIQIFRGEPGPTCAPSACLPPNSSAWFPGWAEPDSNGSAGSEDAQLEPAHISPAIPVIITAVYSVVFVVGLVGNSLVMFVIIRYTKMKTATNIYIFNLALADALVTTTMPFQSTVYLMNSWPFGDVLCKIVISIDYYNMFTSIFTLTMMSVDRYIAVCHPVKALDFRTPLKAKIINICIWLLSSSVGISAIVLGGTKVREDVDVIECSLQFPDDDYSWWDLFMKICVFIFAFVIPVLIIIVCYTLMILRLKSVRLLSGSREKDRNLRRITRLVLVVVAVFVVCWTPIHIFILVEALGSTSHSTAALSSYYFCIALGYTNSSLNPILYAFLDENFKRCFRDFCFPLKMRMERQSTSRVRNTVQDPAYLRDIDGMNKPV
T4 sequence (P09923 whole entry): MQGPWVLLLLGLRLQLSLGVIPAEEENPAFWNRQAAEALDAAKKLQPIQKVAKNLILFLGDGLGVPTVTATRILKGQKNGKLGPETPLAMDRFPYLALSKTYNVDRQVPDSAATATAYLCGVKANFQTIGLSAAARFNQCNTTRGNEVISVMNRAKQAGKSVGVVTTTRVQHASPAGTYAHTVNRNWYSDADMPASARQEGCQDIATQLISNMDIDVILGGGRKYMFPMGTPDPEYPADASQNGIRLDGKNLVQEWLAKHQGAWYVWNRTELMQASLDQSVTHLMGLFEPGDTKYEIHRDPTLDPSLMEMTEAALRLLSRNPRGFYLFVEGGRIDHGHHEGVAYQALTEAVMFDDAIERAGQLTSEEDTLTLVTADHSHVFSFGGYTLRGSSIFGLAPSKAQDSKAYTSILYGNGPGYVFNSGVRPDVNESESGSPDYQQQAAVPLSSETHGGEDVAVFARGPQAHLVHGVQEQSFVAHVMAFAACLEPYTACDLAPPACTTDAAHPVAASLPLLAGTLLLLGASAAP
T1 sequence (P41143 whole entry): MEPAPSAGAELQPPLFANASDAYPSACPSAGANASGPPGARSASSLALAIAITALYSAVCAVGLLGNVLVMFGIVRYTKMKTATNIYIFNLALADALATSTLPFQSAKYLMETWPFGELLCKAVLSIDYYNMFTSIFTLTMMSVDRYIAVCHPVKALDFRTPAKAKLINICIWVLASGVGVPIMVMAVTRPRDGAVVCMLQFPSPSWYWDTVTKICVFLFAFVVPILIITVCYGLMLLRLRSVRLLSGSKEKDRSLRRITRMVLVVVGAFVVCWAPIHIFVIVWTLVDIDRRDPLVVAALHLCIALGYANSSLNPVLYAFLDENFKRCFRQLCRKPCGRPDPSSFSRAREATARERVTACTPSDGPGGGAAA
Sequence of Intestinal-type alkaline phosphatase (Mus musculus, UniProt P24822) (P24822 whole entry): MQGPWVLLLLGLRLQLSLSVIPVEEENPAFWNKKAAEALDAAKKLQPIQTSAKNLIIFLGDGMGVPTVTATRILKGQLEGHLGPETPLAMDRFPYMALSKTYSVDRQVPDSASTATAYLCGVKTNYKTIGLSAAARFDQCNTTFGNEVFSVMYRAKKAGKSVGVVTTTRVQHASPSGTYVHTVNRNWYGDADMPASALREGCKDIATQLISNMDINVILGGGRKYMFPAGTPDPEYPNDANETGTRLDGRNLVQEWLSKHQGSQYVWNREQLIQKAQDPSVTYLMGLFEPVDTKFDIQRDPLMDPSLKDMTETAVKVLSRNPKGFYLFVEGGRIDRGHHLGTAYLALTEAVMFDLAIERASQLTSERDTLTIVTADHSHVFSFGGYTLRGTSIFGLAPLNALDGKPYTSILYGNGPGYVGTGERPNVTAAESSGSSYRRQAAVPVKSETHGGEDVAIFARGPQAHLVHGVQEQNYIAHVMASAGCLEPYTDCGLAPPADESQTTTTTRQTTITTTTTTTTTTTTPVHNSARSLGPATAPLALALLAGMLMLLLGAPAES

As a reminder, the EC50 is the concentration giving half of the maximal effect. What is called IC50 is the midpoint of a concentration-inhibition curve. The CC50 is the concentration at which the toxic effect on the cells reaches its halfway point. `Cc1cccc(Cc2cnc(N3C(=N)SC(C)C3=O)s2)c1` (stereo not drawn): the EC50 in experiment [1] was > 32 µM (inactive); in experiment [2] it was > 60 µM (not active); in [3], > 32 µM (inactive); in [5] it was > 31.5 µM (inactive); in [8], 1.91 µM (active); in experiment [9], > 160 µM (inconclusive). The concentration for a half-maximal effect (EC50) in experiment [10] was 0.179 µM (active); in [11], 7.82 µM (active); in experiment [15], 2.41 µM (active). Besides, the IC50 in [4] is 5.68 µM (active); in [6] it was > 32 µM (inactive); in experiment [7], > 66.6 µM (inactive); in [12] it was 1.87 µM (active); in experiment [14], more than 32 µM; in experiment [16], 0.847 µM (active). The CC50 in [13] is > 25 µM (active).

For the molecule `O=C(Nc1ccc(F)cc1)c1ccc(CN2CCc3ccccc32)cc1`, the IC50 in [17] and in [18] was > 20 µM (inactive) in each case.

`CCN(CC)C(CNC(=O)c1cc(=O)[nH]c2ccccc12)c1ccccc1Cl` (stereo not drawn): the EC50 in [1] was > 32 µM (inactive); in experiment [3], > 32 µM (inactive); in [5], > 31.5 µM (inactive). The IC50 was 14.9 µM (active) in experiment [4], > 32 µM (inactive) in experiment [6] and 14.6 µM in experiment [14].

`C[C@@H](NC(=O)c1[nH]cnc1C(=O)Nc1ccon1)c1ccccc1`: the EC50 was 12 µM (active) in experiment [19], 25.9 µM (active) in [20] and 16.4 µM (active) in experiment [22]. The IC50 in [21] was 39.3 µM (active).

In general, AC50 refers to the concentration at which the activity in the assay is half-maximal. As to `c1ccc(CC2CCN(c3ncnc4sccc34)CC2)cc1`, the IC50 is > 20 µM (inactive) in [23]; 0.756 µM (active) in experiment [28]; 1.85 µM (active) in experiment [30]; > 55.7 µM (inactive) in experiment [31]; > 20 µM (inactive) in [32]; 0.505 µM (active) in experiment [34]. The IC50 in experiment [35] is > 20 µM (inactive). For the same molecule, the AC50 in experiment [24] was 5.88 µM (active); in experiment [25], 1.84 µM (active); in experiment [26] it was 0.362 µM (active). Moreover, the EC50 in [27] was > 20 µM (inactive); in experiment [29] it was 19.5 µM (active); in experiment [8], 0.574 µM (active); in [9], > 160 µM (inconclusive); in experiment [33] it was > 180 µM (inactive).

`CCn1c(C)nc2cc(C(=O)NNC(=S)Nc3ccccc3)ccc21`: the EC50 was 10.6 µM (active) in experiment [19], 0.192 µM (active) in experiment [36], 15.4 µM (active) in experiment [20] and 15.6 µM (active) in [22]. The IC50 in experiment [21] was 50.3 µM (active).
